Read-outs that look alike come from different tables or passages of the source. Blank lines part the entries; values can stand above or below the compound they belong to.
Experiments:
[1] = molecular target: T1, human P450 1A1 (Homo sapiens, UniProt P04798); test: Inhibition of P450 1A1-dependent EROD activity; type: biochemical
T1 sequence (P04798 1-512): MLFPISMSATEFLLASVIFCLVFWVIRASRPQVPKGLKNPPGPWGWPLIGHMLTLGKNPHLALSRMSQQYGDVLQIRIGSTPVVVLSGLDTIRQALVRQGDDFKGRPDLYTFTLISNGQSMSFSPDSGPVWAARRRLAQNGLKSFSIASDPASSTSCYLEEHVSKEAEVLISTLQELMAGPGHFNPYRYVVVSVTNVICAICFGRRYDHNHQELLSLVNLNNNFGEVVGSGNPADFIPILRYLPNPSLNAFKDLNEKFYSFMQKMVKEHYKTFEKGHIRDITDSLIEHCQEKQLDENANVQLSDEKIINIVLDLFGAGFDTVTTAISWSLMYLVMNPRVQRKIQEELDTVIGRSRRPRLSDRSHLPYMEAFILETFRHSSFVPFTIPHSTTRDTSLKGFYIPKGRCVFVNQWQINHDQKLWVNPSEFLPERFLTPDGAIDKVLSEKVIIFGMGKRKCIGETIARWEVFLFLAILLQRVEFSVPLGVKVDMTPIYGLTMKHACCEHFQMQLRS

[2] = molecular target: T2, human P450 2C9 (Homo sapiens, UniProt P11712); test: Inhibition of P450 2C9-dependent flurbiprofen 4’-hydroxylation
T2 sequence (P11712 whole entry): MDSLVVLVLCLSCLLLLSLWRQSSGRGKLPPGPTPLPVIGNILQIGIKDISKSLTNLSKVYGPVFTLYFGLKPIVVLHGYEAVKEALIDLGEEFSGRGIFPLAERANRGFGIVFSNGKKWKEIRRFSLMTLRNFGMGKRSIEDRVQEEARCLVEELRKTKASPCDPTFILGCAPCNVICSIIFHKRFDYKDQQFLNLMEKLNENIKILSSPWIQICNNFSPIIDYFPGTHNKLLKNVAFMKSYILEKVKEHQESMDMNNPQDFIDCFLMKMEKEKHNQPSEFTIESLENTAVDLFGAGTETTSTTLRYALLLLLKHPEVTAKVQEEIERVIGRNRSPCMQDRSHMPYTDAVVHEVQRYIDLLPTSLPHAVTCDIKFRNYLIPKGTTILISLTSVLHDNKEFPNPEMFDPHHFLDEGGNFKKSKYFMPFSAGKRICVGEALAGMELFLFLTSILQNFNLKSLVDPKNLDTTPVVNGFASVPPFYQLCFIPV

[3] = molecular target: T3, human P450 3A4 (Homo sapiens, UniProt P08684); test: Inhibition of P450 3A4-dependent midazolam 4-hydroxylation
T3 sequence (P08684 whole entry): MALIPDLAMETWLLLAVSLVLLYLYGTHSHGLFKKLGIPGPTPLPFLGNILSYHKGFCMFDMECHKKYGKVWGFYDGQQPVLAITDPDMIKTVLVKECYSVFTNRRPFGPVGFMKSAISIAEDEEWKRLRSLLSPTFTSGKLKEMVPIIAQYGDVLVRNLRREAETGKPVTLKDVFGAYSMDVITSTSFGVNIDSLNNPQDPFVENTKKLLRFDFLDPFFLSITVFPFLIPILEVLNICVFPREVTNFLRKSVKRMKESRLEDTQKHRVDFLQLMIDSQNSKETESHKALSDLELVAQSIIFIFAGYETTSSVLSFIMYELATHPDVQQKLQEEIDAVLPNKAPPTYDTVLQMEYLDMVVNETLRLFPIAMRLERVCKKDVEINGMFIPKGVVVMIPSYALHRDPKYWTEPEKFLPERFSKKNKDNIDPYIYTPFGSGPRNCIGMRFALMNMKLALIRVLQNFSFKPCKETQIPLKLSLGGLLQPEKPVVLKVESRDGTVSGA

[4] = molecular target: T4, human P450 1B1 (Homo sapiens, UniProt Q16678); test: Spectral binding titration with purified P450 1B1
T4 sequence (Q16678 1-543): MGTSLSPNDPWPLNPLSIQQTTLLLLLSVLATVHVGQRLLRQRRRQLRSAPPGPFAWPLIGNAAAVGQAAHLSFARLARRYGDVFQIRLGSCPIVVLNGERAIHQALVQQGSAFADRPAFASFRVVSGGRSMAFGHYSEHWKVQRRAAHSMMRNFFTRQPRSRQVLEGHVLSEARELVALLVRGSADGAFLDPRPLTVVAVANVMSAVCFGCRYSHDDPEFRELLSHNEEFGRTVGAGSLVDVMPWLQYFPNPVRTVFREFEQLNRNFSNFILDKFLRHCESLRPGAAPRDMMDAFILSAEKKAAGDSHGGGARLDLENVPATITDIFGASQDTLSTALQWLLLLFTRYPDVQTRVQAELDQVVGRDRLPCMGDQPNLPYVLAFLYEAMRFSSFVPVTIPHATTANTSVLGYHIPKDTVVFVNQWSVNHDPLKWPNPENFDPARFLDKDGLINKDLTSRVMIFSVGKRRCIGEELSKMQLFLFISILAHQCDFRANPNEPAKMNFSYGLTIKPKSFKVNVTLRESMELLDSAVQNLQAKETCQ

[5] = molecular target: T3, human P450 3A4; test: Spectral binding titration with purified P450 3A4; details: decreases in α and β bands monitored; up to 100 µM
[6] = molecular target: T5, human P450 1A2 (Homo sapiens, UniProt P05177)
T5 sequence (P05177 1-516): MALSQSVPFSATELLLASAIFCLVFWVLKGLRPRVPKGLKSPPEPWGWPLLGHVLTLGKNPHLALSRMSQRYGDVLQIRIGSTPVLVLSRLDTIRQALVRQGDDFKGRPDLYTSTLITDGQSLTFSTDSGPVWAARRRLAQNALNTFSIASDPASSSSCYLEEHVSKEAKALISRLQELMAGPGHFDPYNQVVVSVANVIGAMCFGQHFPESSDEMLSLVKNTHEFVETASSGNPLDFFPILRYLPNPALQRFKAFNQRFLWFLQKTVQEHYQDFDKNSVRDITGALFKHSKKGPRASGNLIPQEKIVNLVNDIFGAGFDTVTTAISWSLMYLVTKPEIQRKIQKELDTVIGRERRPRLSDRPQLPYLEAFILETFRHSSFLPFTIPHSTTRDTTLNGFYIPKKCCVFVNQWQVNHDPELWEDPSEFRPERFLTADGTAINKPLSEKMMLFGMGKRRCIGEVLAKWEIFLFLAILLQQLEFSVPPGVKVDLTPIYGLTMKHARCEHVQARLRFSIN

[7] = molecular target: T2, human P450 2C9
[8] = molecular target: T4, human P450 1B1; test: Inhibition of P450 1B1-dependent EROD activity; type: biochemical
[9] = molecular target: T5, human P450 1A2; test: Inhibition of P450 1A2-dependent EROD activity
[10] = molecular target: T3, human P450 3A4; test: Effect on P450 3A4-catalyzed midazolam 1’-hydroxylation
[11] = molecular target: T2, human P450 2C9; test: Spectral binding titration with purified P450 2C9; details: concentrations up to 100 µM; results not shown

SMILES: COc1ccccc1-c1cc(=O)c2ccc(O)c(O)c2o1 [2’M78DHF, 2’-methoxy-7,8-dihydroxyflavone]
- binding spectra with P450 1B1, in words [4]: no binding spectra
- binding spectra with P450 1B1, in words ([4]; listed as 2M78DHF): did not show spectra

SMILES: COc1ccccc1-c1cc(=O)c2ccccc2o1 [2’MF, 2’-Methoxyflavone]
- inhibition of P450 3A4 midazolam 4-hydroxylation, in words [3]: not very effective inhibitors
- spectral change / Type I binding spectra with P450 3A4, in words [5]: induced spectral changes

SMILES: COc1ccc(-c2cc(=O)c3c(O)cc(O)cc3o2)cc1OC [3’4’DM57DHF, 3’4’-dimethoxy-5,7-dihydroxyflavone]
- IC50 [6]: 0.011 ± 0.003 µM
- IC50 [7]: 0.88 ± 0.21 µM
- inhibition of P450 2C9 flurbiprofen 4’-hydroxylation, in words [7]: strong inhibitors
- IC50 ([8]; read-out: inhibition of substrate oxidation by P450s (IC50), P450 1B1, 7-ethoxyresorufin O-deethylation, 2.5 µM substrate, bacterial membranes, means ± SD): 0.019 ± 0.003 µM
- IC50 [1]: 0.072 ± 0.011 µM
- IC50 of P450 3A4 fold higher than that for P450 1B1 ([3]; ratio IC50 3A4 / IC50 1B1): 2000 fold
- IC50 of P450 3A4 fold higher than that of P450 2C9 ([3]; ratio IC50 3A4 / IC50 2C9): 43 fold

SMILES: COc1ccc(-c2cc(=O)c3ccc(O)c(O)c3o2)cc1OC [3’4’DM78DHF, 3’,4’-dimethoxy-7,8-dihydroxyflavone]
- IC50 [9]: > 100 µM
- inhibition of P450 1A2 at 100 µM, in words ([9]; 100 µM concentration): did not inhibit
- IC50 [8]: > 100 µM
- IC50 [1]: 41 ± 10 µM
- IC50 [2]: 25 ± 4.2 µM
- IC50 [3]: > 100 µM
- inhibition of P450 3A4 at 100 µM, in words ([3]; 100 µM concentration): not inhibitory

SMILES: COc1ccc(-c2cc(=O)c3ccccc3o2)cc1OC [3’4’DMF, 3’,4’-dimethoxyflavone]
- inhibition of P450 3A4 midazolam 4-hydroxylation, in words [3]: not very effective inhibitors

SMILES: COc1cccc(-c2cc(=O)c3ccccc3o2)c1 [3’MF, 3’-methoxyflavone]
- inhibition of P450 3A4 midazolam 4-hydroxylation, in words [3]: not very effective inhibitors
- spectral change / Type I binding spectra with P450 3A4, in words [5]: induced spectral changes

SMILES: C[C@@H]1O[C@@H](O[C@H]2[C@H](Oc3cc(O)c4c(c3)O[C@H](c3ccc(O)cc3)CC4=O)O[C@H](CO)[C@@H](O)[C@@H]2O)[C@H](O)[C@H](O)[C@H]1O [4’57THFvaG, 4’,5,7-trihydroxyflavanone glycoside]
- inhibition of P450 1B1 EROD, in words [8]: weak inhibitor

Next, values leading:

- IC50 [1]: 1.4 µM
- inhibition of P450 2C9 flurbiprofen 4’-hydroxylation, in words [2]: strong inhibitors
- IC50 [3]: 2 µM
SMILES: COc1ccccc1-c1cc(=O)c2c(O)cc(O)cc2o1 [2’M57DHF, 2’-methoxy-5,7-dihydroxyflavone]

- effect on formation of 1’-hydroxymidazolam by P450 3A4, in words [10]: slightly activated
- spectral changes with P450 2C9, in words [11]: did not induce spectral changes
- IC50 [2]: 0.65 ± 0.13 µM
- inhibition of P450 2C9 flurbiprofen 4’-hydroxylation, in words [2]: strong inhibitors
- inhibition of P450 3A4 midazolam 4-hydroxylation, in words [3]: significantly inhibited
- spectral change / Type I binding spectra with P450 3A4, in words [5]: induced spectral changes
SMILES: COc1ccc(-c2cc(=O)c3c(O)cc(O)cc3o2)cc1 [4’M57DHF, 4’-methoxy-5,7-dihydroxyflavone]

- spectral changes with P450 2C9, in words [11]: did not induce spectral changes
- IC50 [8]: 0.7 µM
- pattern of inhibition of P450 1B1 (kinetic analysis) ([8]; 357THF 0.02 µM, 4’57THFva 8.0 µM, 4’M57DHisoF 8.0 µM, results not shown): mixed-type
SMILES: COc1ccc(-c2coc3cc(O)cc(O)c3c2=O)cc1 [4’M57DHIsoF, 4’-methoxy-5,7-dihydroxyisoflavone]

- inhibition of P450 3A4 midazolam 4-hydroxylation, in words [3]: not very effective inhibitors
- spectral change / Type I binding spectra with P450 3A4, in words [5]: induced spectral changes
SMILES: COc1ccc(-c2cc(=O)c3ccccc3o2)cc1 [4’MF, 4’-methoxyflavone]

- IC50 [3]: > 100 µM
SMILES: O=c1cc(-c2ccccc2)oc2cccc(O)c12 [5HF, 5-hydroxyflavone]
